# According to US20020155172A1, “Methods and compounds for decreasing cell toxicity or death” (priority 2000, published 2002):
# Assays:
# R62 mice = assay: Rotarod motor performance, second study; format: in vivo; details: 10 rpm, maximum 210 seconds
# Source text: FIG. 10F is a graph of the effect of PBS (vehicle; delivered intraperitoneally (IP)) or Congo red, infused intraperitoneally (IP), by intracerebroventricular cannula (ICV) implanted into the predetermined coordinates on the left ventricle, or by both routes, on motor performance, as assessed by latency to fall measurements using a rotorod.
# In addition, the ability of Congo red to inhibit the formation as well as to disrupt preformed polyglutamine oligomers allowed us to examine the role of polyglutamine aggregates in neuronal dysfunction and degeneration characteristic of polyglutamine expansion diseases. In these studies, we used the animal model of Huntington's disease (R62), which expresses the truncated form of huntingtin with 139 CAG repeats Mangiarini et al. (supra). We took advantage of our finding that in addition to inhibiting polyglutamine oligomerization, Congo red also disrupts pre-formed oligomers, thus allowing assessment of the impact of Congo red on disease progression after formation of polyglutamine aggregates and the onset of symptoms. […]
# The initial abnormal neurological signs of R62 mice include dyskinesia of the hindlimbs when mice were suspended by the tail, and irregular gait. […] The effect of Congo red on motor performance in R62 mice was also assessed by rotarod studies. […]
# [1] = system: HeLa cells transfected with the Q79-GFP plasmid; assay: Cell death by receptor-mediated pathways (TNF-α or anti-FasR with cycloheximide); format: cell-based; details: Congo red 100 μM, 72 hours
# Protocol: FIG. 4B is a graph showing the effect of Congo red (CR) on the induction of cell death by receptor-mediated pathways. HeLa cells transfected with a Q79-GFP plasmid were treated with TNF-a or anti-FasR and cycloheximide (CHX), in the presence or absence of CR (100 μM). The amount of cell death was measured 72 hours after transfection.
# The effect of Congo red on the induction of cell death by receptor-mediated pathways was also evaluated. Once again, HeLa cells were transfected with the Q79-GFP plasmid, and six hours later were administered Tumor Necrosis Factor-alpha (TNF-α) or anti-FasR in the presence of cycloheximide (CHX). The samples were then incubated with or without Congo red (100 μM). The amount of cell death was measured 72 hours after exposure to the compounds (FIG. 4B).
# [2] = system: GST-Q19, GST-Q62, and GST-Q81; assay: Chemical absorption assay, polyglutamine repeat length; format: binding; details: 10 μg/ml Congo red in PBS; equal protein concentrations
# Protocol: FIG. 6A is a graph of the percent of binding of Congo red to expanded polyglutamine repeats Q81, Q62, and Q19.
# To determine if Congo red and its derivatives directly bind to expanded polyglutamine aggregates, we designed a chemical absorption assay. This assay measures the remaining Congo red in the supernatant after incubating the supernatant with GST-tagged polyglutamine beads, and removing the GST-polyglutamine beads by centrifugation. This assay was carried out as follows. Recombinant protein GST-Q19, GST-Q62, and GST-Q81 (containing 19, 62, and 81 polyglutamines, respectively) was purified from E. coli by glutathione beads. After several washes with PBS containing protease inhibitors, the beads were allowed to settle to the bottom of the tube at 24° C. for 10 minutes. The polyglutamine-bound beads were aliquoted and diluted with two volumes of 10 μg/ml of Congo red in PBS. The beads were mixed and centrifuged at 15,000 rpm for 2 minutes and the supernatant was removed and diluted 1:100. The percentage absorbance of the compound remaining in the supernatant after absorption with the GST-polyQ beads was then detected. In addition, Congo red- or PBS-only treated polyglutamine polypeptide bead pellets were washed three times with 100 volumes of PBS and then the protein was separated by 12% polyacrylamide gels and immunoblotted as mentioned above. […]
structure (smiles),measurement,setting,value
"Nc1c(/N=N/c2ccc(-c3ccc(/N=N/c4cc(S(=O)(=O)O)c5ccccc5c4N)cc3)cc2)cc(S(=O)(=O)O)c2ccccc12 [Congo red, diphenyldiazo-bis-alpha-napthylaminesulfonate]",motor performance on rotarod,R62 mice,preserved
same,induction of cell death by receptor-mediated pathways,[1],does not alter the induction of cell death by receptor-mediated pathways
same,affinity for polyglutamine repeats Q81 or Q62 compared to Q19,[2],significantly higher affinity for expanded polyglutamine repeats that were 81 or 62 polyglutamines in length
